Where two headings read alike, the source gives them in different places.

The nature of series [1]: pKa determination by automated spectrophotometric titration. It counts as physicochemical. The note with it: 0.1 M KCl solution.
The nature of series [2]: iron (III) affinity constants and pFe3+ by spectrophotometric titration. It is filed as physicochemical.
Another series concerns the target T1, MAO-B (Homo sapiens, UniProt P27338).
T1 construct: purchased Sigma-Aldrich
T1 sequence (P27338 1-520): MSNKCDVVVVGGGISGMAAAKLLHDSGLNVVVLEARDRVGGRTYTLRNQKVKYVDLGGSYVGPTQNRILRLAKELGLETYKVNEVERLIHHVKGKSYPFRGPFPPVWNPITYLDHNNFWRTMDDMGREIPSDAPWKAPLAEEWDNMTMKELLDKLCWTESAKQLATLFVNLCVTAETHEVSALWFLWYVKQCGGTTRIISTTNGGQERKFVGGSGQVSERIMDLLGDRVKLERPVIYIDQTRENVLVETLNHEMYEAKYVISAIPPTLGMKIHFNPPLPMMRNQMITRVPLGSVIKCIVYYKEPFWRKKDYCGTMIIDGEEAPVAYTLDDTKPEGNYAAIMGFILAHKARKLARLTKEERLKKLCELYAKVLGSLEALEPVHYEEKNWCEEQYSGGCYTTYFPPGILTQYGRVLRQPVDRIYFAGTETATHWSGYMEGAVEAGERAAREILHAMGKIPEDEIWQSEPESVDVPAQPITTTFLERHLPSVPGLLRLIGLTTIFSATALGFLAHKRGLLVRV
Nature of the series: hMAO-B inhibition assay. It is filed as biochemical. The following applies: for inhibition at 0.1 µM: read-out: Inhibitory rate (%, 100 nM). As for the experimental part:
(§1) The reagents and enzymes (Human MAO-B and Human MAO-A) applied in this experiment were purchased from Sigma-Aldrich. According to the manuals, all components (substrate solution and enzyme solution) are diluted and placed aside for use. The detailed process has been mentioned in our early work[34].

The next series addresses T2, Human MAO-A (Homo sapiens, UniProt P21397).
T2 construct: purchased Sigma-Aldrich
T2 sequence (P21397 1-527): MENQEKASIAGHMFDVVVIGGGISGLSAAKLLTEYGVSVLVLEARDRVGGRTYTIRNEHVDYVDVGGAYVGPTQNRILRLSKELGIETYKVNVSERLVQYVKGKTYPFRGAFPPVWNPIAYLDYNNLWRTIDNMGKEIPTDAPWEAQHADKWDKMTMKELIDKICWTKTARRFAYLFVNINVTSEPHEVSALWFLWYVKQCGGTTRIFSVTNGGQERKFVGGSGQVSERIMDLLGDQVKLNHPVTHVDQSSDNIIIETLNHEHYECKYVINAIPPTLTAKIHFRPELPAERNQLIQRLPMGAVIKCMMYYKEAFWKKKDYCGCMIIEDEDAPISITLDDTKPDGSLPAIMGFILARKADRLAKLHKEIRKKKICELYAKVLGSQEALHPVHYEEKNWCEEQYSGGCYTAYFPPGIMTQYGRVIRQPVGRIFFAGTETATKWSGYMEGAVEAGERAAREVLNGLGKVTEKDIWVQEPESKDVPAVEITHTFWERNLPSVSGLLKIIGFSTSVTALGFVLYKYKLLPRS
Briefly: hMAO-A inhibition assay. It counts as biochemical. How it is done:
Further, the inhibitory activity of compounds against hMAO-A isoform was tested and calculated as a selectivity index [Selectivity index (SI): IC50 (hMAO-A)/IC50 (hMAO-B)].
as §1

The nature of a further series: PAMPA-BBB assay. It counts as in vitro ADME. The following applies: PAMPA-BBB, mean ± SEM of eight independent experiments. An excerpt:
Good blood–brain barrier (BBB) permeability is the key to exerting drug efficacy in the treatment of central nervous system diseases. To evaluate whether the target compound could penetrate BBB, a parallel artificial membrane permeability assay (PAMPA) was used to predict[32]^,[33]. […] Therefore, due to its potential ability to cross the BBB, compound 17d was selected for subsequent assay.
PAMPA was used to predict the BBB permeability of the screened compound. The detailed process has been mentioned in our early work[32]^,[33].
(In general: In PAMPA a lipid-coated filter parts donor from acceptor wells.)

The subject of series [3] is scopolamine-induced cognitive impairment mice model. Briefly: Morris water maze test, scopolamine-induced memory impairment. It is filed as in vivo, ICR mice. Details: Distance to first entry: unit not given here. The note with it: 15 mg/kg, scopolamine 15 mg/kg, ICR mice, mean ± SEM, n = 15; for Latency to first entry: in s (unit assumed). From the text: To further explore the in vivo anti-AD effect of compound 17d on the scopolamine-induced cognitive impairment mice model, the Morris Water Maze experiment was selected; data are shown in Figure 7 and Table 5.
Figure 7.
Adult female ICR mice (weight 20–25 g) were obtained from the Zhejiang Academy of Medical Sciences (Hangzhou, China). Scopolamine hydrobromide and Pargyline were purchased from Aladdin Reagents. Memantine was purchased from Energy Chemical. All experiments were approved by the Laboratory Animals Ethical Committee of the Zhejiang University of Technology (No. 20211210103). In this test, mice were prepared as clarified and clear injections, consisting of 20% (2-Hydroxypropyl)-β-cyclodextrin, 10% DMSO, and PBS. […] Mice were administered at a frequency of once a day over 15 d with a fixed dosing schedule. The body weight of mice was measured during the experiment.
After eliminating environmental stress, the behavioural test was performed over the next five days. The mice were trained to find the platform (10 cm diameter) in the circular light-avoidance pool (120 cm diameter and 60 cm height) filled with water (40 cm, depth), which was described in detail in our previous study. All mice received at least one training session daily in four quadrants for four consecutive days before the probe trial of finding the platform within 120 s. Recordings were made with SMART version 3.0 (Panlab, Spain) and processed by Graphpad Prism version 6 software (Graphpad Software Inc., La Jolla, CA, USA).

Where [4] appears, read: DMSO: KCl (0.1 M) = 1:1.5 (v/v).

As for `Cc1c(O)c(=O)ccn1CCNCc1coc2ccccc2c1=O` [Compound 17a, 3-Hydroxy-2-methyl-1–(2-(((4-oxo-4H-chromen-3-yl)methyl)amino)ethyl)pyridin-4(1H)-one], the melting point – broadly, the temperature of the solid-liquid transition – was in the range of 248 to 250 °C. For the same compound, the pKa in series [1] (read-out: pKa1) was 2.81. Besides, in series [1] (read-out: pKa2), the pKa is 9.8. Also, in series [2] (setting [4]), the “Log β1” value was determined as 13.46, the “Log β2” value amounted to 25.19 and the “Log β3” value stood at 35.28. The “pFe^3+” value in series [2] (calculated from Log β values obtained in DMSO: KCl (0.1 M) = 1:1.5 (v/v)) was 18.62. At MAO-B, the IC50 (in general, the concentration needed to halve the response being measured) was 67.3 ± 1.9 nM and the “SI: hMAO-B selectivity index = IC50 (hMAO-A)/IC50 (hMAO-B)” value is recorded as 30.7. Moreover, the inhibition at 0.1 µM on MAO-B (hMAO-B, 100 nM) came to 53.1 ± 1.6%. The compound also showed an IC50 at Human MAO-A of 2060 ± 35.4 nM. In addition, the “Pe ± SEM” value in the series “PAMPA-BBB assay” is reported as 1.22 ± 0.22 *10^−6 cm/s. Also, the Papp in “PAMPA-BBB assay” (read-out: Pe ± SEM) was determined as 1.22 ± 0.22 ×10⁻⁶ cm/s.
For the compound `CC12CC3CC(C)(C1)CC(N)(C3)C2` [Memantine], in series [3], the Entries to target was found to be 4.0 ± 0.3 and the “Latency to first entry” value stood at 13 ± 1. Also, in series [3] (listed as memantine), the Entries to target was found to be 4.0 ± 0.3 and the “Latency to first entry” value is recorded as 13 ± 1.
For `C#CCN(C)Cc1ccccc1` [Pargyline], the inhibition at 0.1 µM on MAO-B was determined as 48.9 ± 1.7%. Also, in series [3], the “Distance to first entry” value came to 2.6 ± 0.3, the Entries to target was 5.3 ± 0.9 and the “Latency to first entry” value was 11 ± 1. Also, in series [3] (listed as pargyline), the “Distance to first entry” value was determined as 2.6 ± 0.3, the Entries to target is listed as 5.3 ± 0.9 and the “Latency to first entry” value was 11 ± 1.
